Turning to `*=Cc1ccc(/C=N/c2c(-c3ccccc3)cc(-c3ccc(-c4cc(-c5ccccc5)c(N=*)c(-c5ccccc5)c4)cc3)cc2-c2ccccc2)cc1` (repeat unit), the glass transition temperature is 300.00 °C. To `*C(=O)N1C(=O)N(C(=O)c2ccc3c(c2)C(=O)N(c2ccc(Oc4ccc(N5C(=O)c6ccc(*)cc6C5=O)cc4)cc2)C3=O)C(CC)(CC)C1=O` (repeat unit) belongs 160.00 °C; to `*C(=O)Nc1ccc(Cc2ccc(NC(=O)c3ccc4c(c3)C(=O)N(c3ccc(/N=N/c5ccc(C)cc5)c(N5C(=O)c6ccc(*)cc6C5=O)c3)C4=O)c(C)c2)cc1C` (repeat unit), 257.00 °C; to `*C(=O)Nc1ccc(Oc2ccc(C3(c4ccc(Oc5ccc(NC(=O)c6ccc7c(c6)C(=O)N(c6ccc(C)c(N8C(=O)c9ccc(*)cc9C8=O)c6)C7=O)cc5)cc4)NC(=O)c4ccccc43)cc2)cc1` (repeat unit), 315.00 °C. Under `*C(=O)Oc1ccc(C2(c3ccc(OC(=O)c4ccc5c(c4)C(=O)N(c4ccc(-c6ccc(N7C(=O)c8ccc(*)cc8C7=O)cc6C)c(C)c4)C5=O)cc3)CC3CC2C2CCCC32)cc1` (repeat unit) stands 226.00 °C. Under `*C(=O)c1cc2c(cc1Cl)C(=O)N(c1cc(N3C(=O)c4cc(*)c(Cl)cc4C3=O)cc(C(C)(C)C)c1)C2=O` (repeat unit) stands 290.00 °C; under `*C(=O)c1ccc(-c2ccc(C(C)(C)c3ccc(-c4ccc(C(=O)c5ccc6c(c5)C(=O)N(c5ccc(Cc7ccc(N8C(=O)c9ccc(*)cc9C8=O)cc7)cc5)C6=O)cc4)cc3)cc2)cc1` (repeat unit), 216.00 °C. `*C(=O)c1ccc2c(c1)C(=O)N(c1cc(N3C(=O)c4ccc(*)cc4C3=O)c(C)cc1C)C2=O` (repeat unit) displayed a glass transition temperature of 305.00 °C. To `*C(=O)c1ccc2c(c1)C(=O)N(c1cc(OCCCC)cc(N3C(=O)c4ccc(*)cc4C3=O)c1)C2=O` (repeat unit) belongs 244.00 °C. To `*C(=O)c1ccc2c(c1)C(=O)N(c1cc(OCCCCCCCCCCCCCCCC)cc(N3C(=O)c4ccc(*)cc4C3=O)c1)C2=O` (repeat unit) belongs 179.00 °C; to `*C(=O)c1ccc2c(c1)C(=O)N(c1ccc(N(c3ccccc3)c3ccc(N4C(=O)c5ccc(*)cc5C4=O)cc3)cc1)C2=O` (repeat unit), 270.00 °C. Under `*C(=O)c1ccc2c(c1)C(=O)N(c1ccc(OCCOc3ccc(N4C(=O)c5ccc(*)cc5C4=O)cc3)cc1)C2=O` (repeat unit) stands 246.00 °C; under `*C(=O)c1ccc2c(c1)C(=O)N(c1ccc(Oc3ccc(C(=O)c4cccc(C(=O)c5ccc(Oc6ccc(N7C(=O)c8ccc(*)cc8C7=O)cc6C(F)(F)F)cc5)n4)cc3)c(C(F)(F)F)c1)C2=O` (repeat unit), 225.20 °C. `*CC(O)COc1c(Cl)cc(C(C)(C)c2cc(Cl)c(O*)c(Cl)c2)cc1Cl` (repeat unit) gave a glass transition temperature of 135.00 °C.

In turn, `*Oc1c(Cl)cc(C(C)(C)c2cc(Cl)c(OC(*)=O)c(Cl)c2)cc1Cl` (repeat unit) came in with a glass transition temperature of 227.00 °C. Under `*Oc1c(Cl)cc(C(C)(C)c2cc(Cl)c(OC(=O)CCCCC(*)=O)c(Cl)c2)cc1Cl` (repeat unit) stands 100.00 °C; under `*Oc1c(OC)cc(-c2cc(OC)c(OC(=O)CCCCCCCCC(*)=O)c(OC)c2)cc1OC` (repeat unit), 94.00 °C; under `*Oc1c(OC)cc(-c2cc(OC)c(OC(=O)c3cccc(C(*)=O)c3)c(OC)c2)cc1OC` (repeat unit), 252.00 °C. Compound `*c1cc(CCOc2ccc(/N=N/c3ccc(C#N)cc3)cc2)c(*)s1` (repeat unit) returned a glass transition temperature of 73.00 °C. To `*c1cc(OCCCC)c(*)cc1OCCCC` (repeat unit) belongs 37.00 °C; to `*c1cc(OCCCCCCCCCCCC)cc(N2C(=O)c3ccc(Oc4ccc5c(c4)C(=O)N(*)C5=O)cc3C2=O)c1` (repeat unit), 162.00 °C; to `*c1cc(OCCCCCCCCCCCCCCCC)cc(N2C(=O)c3ccc(Oc4ccc5c(c4)C(=O)N(*)C5=O)cc3C2=O)c1` (repeat unit), 159.00 °C. To `*c1ccc(-c2c(-c3ccc(-c4ccccc4)cc3)cc(-c3ccc(OCCCCCCCCCCOc4ccc(-c5cc(-c6ccc(-c7ccccc7)cc6)c(-c6ccc(-n7c(=O)c8cc9c(=O)n(*)c(=O)c9cc8c7=O)cc6)c(-c6ccc(-c7ccccc7)cc6)c5)cc4)cc3)cc2-c2ccc(-c3ccccc3)cc2)cc1` (repeat unit) belongs 121.00 °C. Under `*c1ccc(-c2c(-c3ccccc3)nc3ccc(-c4ccc5nc(-c6ccccc6)c(*)c(-c6ccccc6)c5c4)cc3c2-c2ccccc2)cc1` (repeat unit) stands 370.00 °C. The compound `*c1ccc(-c2c(-c3ccccc3)nc3ccc(Oc4ccc5nc(-c6ccccc6)c(*)c(-c6ccccc6)c5c4)cc3c2-c2ccccc2)cc1` (repeat unit) registered a glass transition temperature of 311.00 °C. Under `*c1ccc(-c2cc(CCCCCCBr)c(*)s2)s1` (repeat unit) stands 51.00 °C; under `*c1ccc(-c2cc(CCCCCCCC)c(-c3ccc(-c4ccc(-c5sc(-c6ccc([Si](C)(C)[Si](*)(C)C)s6)cc5CCCCCCCC)s4)s3)s2)s1` (repeat unit), 12.00 °C. Under `*c1ccc(-c2cc(CCCCCCCC)c(-c3ccc(-c4ccc(-c5sc(-c6ccc([Si](C)(C)[Si](C)(C)[Si](C)(C)[Si](*)(C)C)s6)cc5CCCCCCCC)s4)s3)s2)s1` (repeat unit) stands 6.00 °C; under `*c1ccc(-c2cc(CCCCCCCC)c(-c3ccc(-c4ccc(-c5sc(-c6ccc([Si](C)(C)[Si](C)(C)[Si](C)(C)[Si](C)(C)[Si](C)(C)[Si](C)(C)[Si](C)(C)[Si](*)(C)C)s6)cc5CCCCCCCC)s4)s3)s2)s1` (repeat unit), 13.00 °C. To `*c1ccc(-c2ccc(-c3cc(-c4ccc(Oc5ccc(-c6cc(*)nc7ccccc67)cc5)cc4)c4ccccc4n3)cc2)cc1` (repeat unit) belongs 326.00 °C; to `*c1ccc(-c2ccc(-c3cc(-c4ccccc4)c4cc(-c5ccc6nc(*)cc(-c7ccccc7)c6c5)ccc4n3)cc2)cc1` (repeat unit), 360.00 °C; to `*c1ccc(-c2ccc(-c3cc(-c4ccccc4)c4cc5c(-c6ccccc6)cc(*)nc5cc4n3)cc2)cc1` (repeat unit), 392.00 °C.

For the compound `*c1ccc(-c2ccc(-c3ccc(-c4ccc(*)n4CCCCCCCCCCCC)s3)s2)s1` (repeat unit), the glass transition temperature is 52.00 °C. To `*c1ccc(-c2ccc(-c3ccc(-c4ccc(-c5ccc(*)n5CCCCCCCCCCCC)s4)s3)s2)s1` (repeat unit) belongs 54.00 °C; to `*c1ccc(-c2ccc(-c3ccc(-c4ccc(N(*)c5ccc(C)cc5)cc4)c4c(C)ccc(C)c34)c3c(C)ccc(C)c23)cc1` (repeat unit), 148.00 °C.

In the case of `*c1ccc(-c2ccc(-c3ccc(-c4ccc([Si](*)(CCCC)CCCC)s4)s3)s2)s1` (repeat unit), the glass transition temperature turned out to be 1.00 °C. With `*c1ccc(-c2ccc(-c3ccc(-c4ccc([Si](CCCC)(CCCC)[Si](*)(CCCC)CCCC)s4)s3)s2)s1` (repeat unit), the glass transition temperature is -1.00 °C. Under `*c1ccc(-c2ccc(-c3ccc(-c4cnc5ccc(-c6ccc7ncc(*)nc7c6)cc5n4)cc3)cc2)cc1` (repeat unit) stands 305.00 °C; under `*c1ccc(-c2ccc(-c3ccc(-n4c(=O)c5c(C(F)(F)F)c6c(=O)n(*)c(=O)c6c(C(F)(F)F)c5c4=O)cc3)cc2)cc1` (repeat unit), 364.00 °C. `*c1ccc(-c2ccc(-c3nc4ccc(-c5ccc6nc(*)c(-c7ccccc7)c(-c7ccccc7)c6c5)cc4c(-c4ccccc4)c3-c3ccccc3)cc2)cc1` (repeat unit) came in with a glass transition temperature of 420.00 °C. Under `*c1ccc(-c2ccc(-n3c(=O)c4cc5c(=O)n(*)c(=O)c5cc4c3=O)cc2OC)c(OC)c1` (repeat unit) stands 328.00 °C; under `*c1ccc(-c2ccc(C(*)(C(F)(F)F)C(F)(F)F)cc2)cc1` (repeat unit), 264.00 °C. Under `*c1ccc(-c2ccc(C3(*)CCCCC3)cc2)cc1` (repeat unit) stands 287.00 °C; under `*c1ccc(-c2ccc(C3(*)c4ccccc4-c4ccccc43)cc2)cc1` (repeat unit), 297.00 °C; under `*c1ccc(-c2ccc(N(*)c3cc(C(F)(F)F)cc(C(F)(F)F)c3)cc2)cc1` (repeat unit), 209.00 °C. To `*c1ccc(-c2ccc(N3C(=O)c4c(c(-c5ccccc5)c(-c5ccc(Oc6ccc(-c7c(-c8ccccc8)c8c(c(-c9ccccc9)c7-c7ccccc7)C(=O)N(*)C8=O)cc6)cc5)c(-c5ccccc5)c4-c4ccccc4)C3=O)cc2)cc1` (repeat unit) belongs 399.00 °C; to `*c1ccc(C2(c3ccc(-c4cc(-c5ccccc5)c5cc(C6(c7ccc8nc(*)cc(-c9ccccc9)c8c7)c7ccccc7C(=O)c7ccccc76)ccc5n4)cc3)c3ccccc3C(=O)c3ccccc32)cc1` (repeat unit), 390.00 °C.

Consider `*c1ccc(Cc2ccc(N3C(=O)c4cc(-c5ccc(C(C)(C)C)cc5)c(-c5cc6c(cc5-c5ccc(C(C)(C)C)cc5)C(=O)N(*)C6=O)cc4C3=O)cc2)cc1` (repeat unit), for which the glass transition temperature amounted to 360.00 °C. To `*c1ccc(Cc2ccc(N3C(=O)c4cc(-c5ccc([Si](C)(C)C)cc5)c(-c5cc6c(cc5-c5ccc([Si](C)(C)C)cc5)C(=O)N(*)C6=O)cc4C3=O)cc2)cc1` (repeat unit) belongs 348.00 °C. To `*c1ccc(Oc2ccc(N3C(=O)c4cc(-c5ccc(C(C)(C)C)cc5)c(-c5cc6c(cc5-c5ccc(C(C)(C)C)cc5)C(=O)N(*)C6=O)cc4C3=O)cc2)cc1` (repeat unit) belongs 370.00 °C. Under `*c1ccc2c(c1)C(=O)N(c1cc(OCCCCCCCCCCCC)cc(N3C(=O)c4ccc(C(*)(C(F)(F)F)C(F)(F)F)cc4C3=O)c1)C2=O` (repeat unit) stands 165.00 °C.

The values above are taken from the PolyMetriX glass transition set.
